Assay results reported in patent US20030147957A1, “Dual release formulation comprising levodopa ethyl ester and a decarboxylase inhibitor in immediate release layer with levodopa ethyl ester and a decarboxylase inhibitor in a controlled release core” (priority 2001, published 2003).
≈ marks a conversion by molar mass, not a printed value.

Assay: Solubility versus pH at ~22-24° C.
Format: physicochemical
Conditions: 23 °C
Excerpt: However, carbidopa and LDEE, examples of two active materials in the composition of the present invention, have different chemical and physical properties and contrasting solubility characteristics especially in acid conditions, i.e., in the gastrointestinal tract (see Table 1).

[1] = aqueous buffer, pH 5.0, ~22-24° C.
[2] = simulated gastric fluid, pH 1.0, ~22-24° C.

Row | solubility [1] | solubility [2] | SMILES
1 | 1660 µg/mL (≈ 7.34 mM) | 21400 µg/mL (≈ 94.6 mM) | C[C@@](Cc1ccc(O)c(O)c1)(NN)C(=O)O [Carbidopa, carbidopa]
2 | 4960 µg/mL (≈ 25.2 mM) | 5380 µg/mL (≈ 27.3 mM) | N[C@@H](Cc1ccc(O)c(O)c1)C(=O)O [Levodopa, levodopa]
